From PubChem BioAssay (NCI)
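Each compound was tested at five concentrations against cells in 96-well plates for 48 hours. At the TGI there is no net growth.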

Legend:
Assay in all cases: DTP human tumour cell line panel, 48 h
786-0 renal = tested on: 786-0 renal
A498 renal = tested on: A498 renal
A549 NSCLC = tested on: A549 NSCLC
ACHN renal = tested on: ACHN renal
CAKI-1 renal = tested on: CAKI-1 renal
COLO 205 colon = tested on: COLO 205 colon
DLD-1 colon = tested on: DLD-1 colon
DMS 273 small cell lung = tested on: DMS 273 small cell lung
EKVX NSCLC = tested on: EKVX NSCLC
HCC-2998 colon = tested on: HCC-2998 colon
HCT-116 colon = tested on: HCT-116 colon
HCT-15 colon = tested on: HCT-15 colon
HL-60(TB) leukemia = tested on: HL-60(TB) leukemia
HOP-18 NSCLC = tested on: HOP-18 NSCLC
HOP-92 NSCLC = tested on: HOP-92 NSCLC
HT29 colon = tested on: HT29 colon
IGROV1 ovarian = tested on: IGROV1 ovarian
K-562 leukemia = tested on: K-562 leukemia
KM12 colon = tested on: KM12 colon
KM20L2 colon = tested on: KM20L2 colon
LOX IMVI melanoma = tested on: LOX IMVI melanoma
LXFL 529 NSCLC = tested on: LXFL 529 NSCLC
M14 melanoma = tested on: M14 melanoma
M19-MEL melanoma = tested on: M19-MEL melanoma
MALME-3M melanoma = tested on: MALME-3M melanoma
MOLT-4 leukemia = tested on: MOLT-4 leukemia
NCI-H226 lung = tested on: NCI-H226 lung
NCI-H23 lung = tested on: NCI-H23 lung
NCI-H460 lung = tested on: NCI-H460 lung
NCI-H522 lung = tested on: NCI-H522 lung
OVCAR-3 ovarian = tested on: OVCAR-3 ovarian
OVCAR-4 ovarian = tested on: OVCAR-4 ovarian
OVCAR-5 ovarian = tested on: OVCAR-5 ovarian
OVCAR-8 ovarian = tested on: OVCAR-8 ovarian
RPMI-8226 leukemia = tested on: RPMI-8226 leukemia
RXF 393 renal = tested on: RXF 393 renal
RXF-631 renal = tested on: RXF-631 renal
SF-268 CNS = tested on: SF-268 CNS
SF-295 CNS = tested on: SF-295 CNS
SF-539 CNS = tested on: SF-539 CNS
SK-MEL-28 melanoma = tested on: SK-MEL-28 melanoma
SK-MEL-5 melanoma = tested on: SK-MEL-5 melanoma
SK-OV-3 ovarian = tested on: SK-OV-3 ovarian
SN12C renal = tested on: SN12C renal
SNB-19 CNS = tested on: SNB-19 CNS
SNB-75 CNS = tested on: SNB-75 CNS
SR leukemia = tested on: SR leukemia
SW-620 colon = tested on: SW-620 colon
TK-10 renal = tested on: TK-10 renal
U251 CNS = tested on: U251 CNS
UACC-257 melanoma = tested on: UACC-257 melanoma
UACC-62 melanoma = tested on: UACC-62 melanoma
UO-31 renal = tested on: UO-31 renal
XF 498 CNS = tested on: XF 498 CNS

`CN1CCC(SC2Cc3cc(Cl)ccc3Sc3ccccc32)CC1` (centres undefined) was tested. Which TGI (786-0 renal) did it give?
Its TGI is 27.7 µM.

What about the TGI (A498 renal) of the same compound?
The TGI was 31.6 µM.

And the TGI (A549 NSCLC)?
The TGI was 29.7 µM.

What about the TGI (ACHN renal) of the same compound?
Its TGI is 28.6 µM.

And the TGI (CAKI-1 renal)?
Its TGI is 23.7 µM.

And the TGI (COLO 205 colon)?
Its TGI is 27.2 µM.

And the TGI (DLD-1 colon)?
Its TGI is 28.2 µM.

And the TGI (DMS 273 small cell lung)?
The TGI was 26.2 µM.

What about the TGI (EKVX NSCLC) of the same compound?
Its TGI is 34 µM.

What about the TGI (HCC-2998 colon) of the same compound?
The TGI was 21.3 µM.

What about the TGI (HCT-116 colon) of the same compound?
The TGI was 22.5 µM.

And the TGI (HCT-15 colon)?
Its TGI is 31.1 µM.

And the TGI (HL-60(TB) leukemia)?
The TGI was 19.5 µM.

And the TGI (HOP-18 NSCLC)?
The TGI was 26.7 µM.

And the TGI (HOP-92 NSCLC)?
The TGI was 26.9 µM.

What about the TGI (HT29 colon) of the same compound?
Its TGI is 15.3 µM.

What about the TGI (IGROV1 ovarian) of the same compound?
The TGI was 29.6 µM.

What about the TGI (K-562 leukemia) of the same compound?
The TGI was 21.9 µM.

And the TGI (KM12 colon)?
Its TGI is 23.2 µM.

What about the TGI (KM20L2 colon) of the same compound?
The TGI was 17.8 µM.

What about the TGI (LOX IMVI melanoma) of the same compound?
The TGI was 25.7 µM.

What about the TGI (LXFL 529 NSCLC) of the same compound?
The TGI was 26.3 µM.

What about the TGI (M14 melanoma) of the same compound?
Its TGI is 15.7 µM.

What about the TGI (M19-MEL melanoma) of the same compound?
The TGI was 25.3 µM.

And the TGI (MALME-3M melanoma)?
The TGI was 28.8 µM.

What about the TGI (MOLT-4 leukemia) of the same compound?
The TGI was 20.3 µM.

And the TGI (NCI-H226 lung)?
Its TGI is 30 µM.

And the TGI (NCI-H23 lung)?
Its TGI is 27.9 µM.

What about the TGI (NCI-H460 lung) of the same compound?
The TGI was 31.4 µM.

And the TGI (NCI-H522 lung)?
The TGI was 28.4 µM.

What about the TGI (OVCAR-3 ovarian) of the same compound?
Its TGI is 28.2 µM.

And the TGI (OVCAR-4 ovarian)?
Its TGI is 29 µM.

And the TGI (OVCAR-5 ovarian)?
Its TGI is 30.3 µM.

What about the TGI (OVCAR-8 ovarian) of the same compound?
The TGI was 31.5 µM.

And the TGI (RPMI-8226 leukemia)?
Its TGI is 23.3 µM.

What about the TGI (RXF 393 renal) of the same compound?
The TGI was 17.1 µM.

And the TGI (RXF-631 renal)?
The TGI was 27.9 µM.

What about the TGI (SF-268 CNS) of the same compound?
The TGI was 25.5 µM.

What about the TGI (SF-295 CNS) of the same compound?
The TGI was 30.7 µM.

And the TGI (SF-539 CNS)?
The TGI was 33.8 µM.

And the TGI (SK-MEL-28 melanoma)?
Its TGI is 4.78 µM.

What about the TGI (SK-MEL-5 melanoma) of the same compound?
The TGI was 26.8 µM.

What about the TGI (SK-OV-3 ovarian) of the same compound?
The TGI was 30.4 µM.

And the TGI (SN12C renal)?
The TGI was 28.5 µM.

What about the TGI (SNB-19 CNS) of the same compound?
The TGI was 29 µM.

What about the TGI (SNB-75 CNS) of the same compound?
The TGI was 22.2 µM.

And the TGI (SR leukemia)?
The TGI was 23.1 µM.

What about the TGI (SW-620 colon) of the same compound?
Its TGI is 30.9 µM.

And the TGI (TK-10 renal)?
The TGI was 26.5 µM.

And the TGI (U251 CNS)?
The TGI was 27.9 µM.

And the TGI (UACC-257 melanoma)?
Its TGI is 21.3 µM.

What about the TGI (UACC-62 melanoma) of the same compound?
The TGI was 11.4 µM.

What about the TGI (UO-31 renal) of the same compound?
Its TGI is 16.7 µM.

What about the TGI (XF 498 CNS) of the same compound?
Its TGI is 30 µM.
